Results on three compounds are retold here after paper PMC4721062, “Oxadiazole-2-oxides may have other functional targets, in addition to SjTGR, through which they cause mortality in Schistosoma japonicum” (Parasites & Vectors, 2016).

One assay has as its target T1, recombinant SjTGR (Schistosoma japonicum, UniProt B5THG7).
T1 sequence (B5THG7 1-596): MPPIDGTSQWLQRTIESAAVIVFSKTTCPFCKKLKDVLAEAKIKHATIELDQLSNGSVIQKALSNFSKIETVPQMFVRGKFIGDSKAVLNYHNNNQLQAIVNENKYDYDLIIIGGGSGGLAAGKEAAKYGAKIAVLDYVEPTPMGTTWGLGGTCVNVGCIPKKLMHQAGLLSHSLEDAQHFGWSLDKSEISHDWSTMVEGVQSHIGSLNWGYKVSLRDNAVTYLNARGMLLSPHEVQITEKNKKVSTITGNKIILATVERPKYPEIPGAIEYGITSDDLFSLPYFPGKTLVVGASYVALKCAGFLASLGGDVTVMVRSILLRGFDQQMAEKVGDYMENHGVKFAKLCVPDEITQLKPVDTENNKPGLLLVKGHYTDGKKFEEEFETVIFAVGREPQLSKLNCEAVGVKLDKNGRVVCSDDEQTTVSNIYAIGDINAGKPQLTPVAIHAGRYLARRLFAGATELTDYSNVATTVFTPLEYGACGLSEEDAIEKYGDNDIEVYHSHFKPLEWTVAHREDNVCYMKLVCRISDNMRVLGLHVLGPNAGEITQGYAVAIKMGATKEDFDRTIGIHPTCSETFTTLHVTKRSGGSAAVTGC
The assay is described as follows: Inhibition of TrxR activity of recombinant SjTGR (DTNB assay). The assay is classed as biochemical. The note with it: 50 nM SjTGR, 1 mM NADPH, 15 min preincubation, DTNB reduction; for IC50: read-out: IC50 of SjTGR. Summed up: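 SjTGR (50 nM) preincubated 15 min at room temperature with 1 mM NADPH and oxadiazole-2-oxides (2-20 μM). Reaction started with potassium phosphate pH 7.4, 10 mM EDTA, 100 μM NADPH, 3 mM DTNB; A412 increase followed over first 2 min, triplicates.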

In the next assay the test system is juvenile S. japonicum. The experiment in a line: microbe, parasite or virus in culture. The note with it: for mortality at 50 µM / killing at 2 µM / killing at 5 µM / killing at 50 µM: Schistosoma japonicum; for mortality at 50 µM: read-out: Mortality of juvenile worms; for killing at 2 µM / killing at 5 µM / killing at 50 µM / Killing activity 24hr / Killing activity 48hr / Killing activity 72hr: juvenile worms; for Killing activity 24hr / Killing activity 48hr / Killing activity 72hr: 10 μM. The assay is classed as cell-based. The essentials: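 Juvenile S. japonicum, 20–30 tail-shed cercariae per well, were exposed to compounds at 2, 5, 10 and 50 μM in RPMI 1640 with 10% FBS and HEPES. Survival was scored microscopically at 24, 48 and 72 h, with death defined by disrupted internal structure or tegument or 1 min without motility. % D is dead/total, averaged over three experiments.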

Where [1] appears, read: 24 h, read-out: Killing activity 24hr.
Setting [2] is: 48 h, read-out: Killing activity 48hr.
Where [3] appears, read: 72 h, read-out: Killing activity 72hr.

Like-named read-outs stand apart in the source and are kept apart here.

As usually defined, the IC50 is the midpoint of a concentration-inhibition curve. In general, mortality refers to the percentage killed. Take `N#Cc1c(-c2ccc(COc3ccccc3)cc2)no[n+]1[O-]` [Compound 23]: on recombinant SjTGR, the “IC50 of SjTGR” value is listed as “did not inhibit” and the half-inhibitory concentration (IC50) was greater than 20 µM. In the assay with juvenile S. japonicum (24 h), the mortality at 50 µM was greater than 70% and the “Killing activity 24hr” value was determined as 45.0%D. Moreover, in the assay with juvenile S. japonicum (setting [1]), the killing at 2 µM is 6%, the killing at 5 µM stood at 9% and the killing at 50 µM was 69.9%. For the same compound, in the assay with juvenile S. japonicum (setting [2]), the killing at 2 µM is 16.1%, the killing at 5 µM worked out at 15% and the killing at 50 µM is 70.8%. Moreover, in the assay with juvenile S. japonicum (setting [3]), the killing at 2 µM was 17.7%, the killing at 5 µM is 20% and the killing at 50 µM turned out to be 77%. Besides, the “Killing activity 48hr” value in the assay on juvenile S. japonicum (48 h) turned out to be 60.0%D. For the same compound, the “Killing activity 72hr” value in the assay on juvenile S. japonicum (72 h) turned out to be 66.7%D.
As to `Cc1ccc2cccc(OCc3ccc(-c4no[n+]([O-])c4C#N)cc3)c2n1` [Compound 28], at recombinant SjTGR, the “IC50 of SjTGR” value is reported as “did not inhibit” and the IC50 is greater than 20 µM. Also, in the assay on juvenile S. japonicum (24 h), the mortality at 50 µM is less than 30% and the “Killing activity 24hr” value was found to be 14.5%D. Also, in the assay on juvenile S. japonicum (setting [1]), the killing at 2 µM turned out to be 8.2%, the killing at 5 µM worked out at 14.8% and the killing at 50 µM came to 31.9%. Also, in the assay with juvenile S. japonicum (setting [2]), the killing at 2 µM worked out at 13.7%, the killing at 5 µM is 21.6% and the killing at 50 µM came out at 36.2%. In the assay with juvenile S. japonicum (setting [3]), the killing at 2 µM came to 19.2%, the killing at 5 µM is 26.1% and the killing at 50 µM was 39.1%. Also, the “Killing activity 48hr” value with juvenile S. japonicum (48 h) was found to be 17.4%D. In addition, in the assay on juvenile S. japonicum (72 h), the “Killing activity 72hr” value turned out to be 30.4%D.
Turning to `N#Cc1c(-c2ccc(OCCBr)cc2)no[n+]1[O-]` [Compound 12], the IC50 at recombinant SjTGR was determined as 21.7 µM. In addition, in the assay on juvenile S. japonicum (24 h), the mortality at 50 µM is less than 30% and the “Killing activity 24hr” value was 21.3%D. In addition, in the assay on juvenile S. japonicum (setting [1]), the killing at 2 µM stood at 17.3%, the killing at 5 µM came to 16.4% and the killing at 50 µM is 33.3%. Moreover, in the assay on juvenile S. japonicum (setting [2]), the killing at 2 µM was found to be 17.3%, the killing at 5 µM worked out at 18.2% and the killing at 50 µM is 36.2%. Besides, in the assay on juvenile S. japonicum (setting [3]), the killing at 2 µM came to 19.2%, the killing at 5 µM turned out to be 23.6% and the killing at 50 µM was determined as 72.5%. Besides, in the assay on juvenile S. japonicum (48 h), the “Killing activity 48hr” value is listed as 21.3%D. For the same compound, in the assay with juvenile S. japonicum (72 h), the “Killing activity 72hr” value is reported as 28.8%D.
